Results on one molecule are retold here after patent US20250241923A1, “A DUAL SELECTIVE PI3K DELTA AND GAMMA INHIBITORS AND/OR A SALT-INDUCIBLE KINASE 3 INHIBITOR FOR TREATING SOLID TUMORS” (Incozen Therapeutics Pvt. Ltd, priority 2022, published 2025).

As a reminder, the bioavailability is the share of a dose that reaches the circulation, judged against a reference dose that is usually intravenous. The low end stands for poor availability, the high end for good availability. One may read the IC50 as the concentration needed to halve the response being measured. A lower IC50 goes with greater potency. In general, EC50 refers to the concentration at which the effect is half-maximal.

Data set [1] in a line: Pharmacokinetics, oral bioavailability in mice. It counts as in vivo. The following applies: mouse, plasma. The method, then: (§1) Pharmacokinetic studies following single-dose and repeat dose administration were performed in mice, rats, dogs, humans and monkeys. Tenalisib plasma concentrations were determined by a validated LC-MS/MS method. The pharmacokinetic profile of tenalisib was evaluated following both oral and intravenous administration. […] In an in vitro study using liver microsomes, the metabolic stability followed a rank order of rat>human>dog>monkey>mouse.

A short description of data set [2]: Pharmacokinetic studies, absorption and clearance across the tested species. The data set is classed as in vivo, mice, rats, dogs, humans and monkeys. The procedure: as §1
Data set [3] is described as follows: Tissue distribution upon single oral administration. It counts as in vivo. The following applies: single oral administration 10 mg/kg bodyweight; male wistar rats. The procedure: Tissue distribution upon single oral administration (10 mg/kg bodyweight) of tenalisib was studied in male wistar rats. The rank order of Cmax and AUC in Wistar rats was liver>kidney>heart>plasma>thymus>spleen>serum>lung>blood>brain.

Data set [4] is described as follows: Metabolic stability in liver microsomes, rat. The data set is classed as in vitro ADME. The text has this:
(§2) In in vitro studies using liver microsomes, the metabolic stability of tenalisib followed the rank order of rat>human>dog>monkey>mouse (Table 3).
(In general: Liver microsomes are vesicles of endoplasmic reticulum, rich in cytochrome P450 enzymes.)

Data set [5] in a line: Metabolic stability in liver microsomes, rank order across species. It counts as in vitro ADME, rat, human, dog, monkey, mouse. The procedure:
as §1, §2

For the next data set, the target named is PI3Kβ (Homo sapiens, UniProt P42338). The data set is described as follows: PI3K isoform enzyme assay (HTRF), PI3Kβ. It counts as biochemical. Conditions: 100 μM ATP. (In general: TR-FRET usually uses a lanthanide donor and a delayed reading to cut background.)
In data set [6] the test system is MC38 syngeneic murine colon carcinoma. Briefly: MC38 syngeneic murine colon carcinoma C57BL/6 model. The following applies: day 22; daily tenalisib; C57BL/6 female mice. It counts as in vivo. The procedure:
Daily tenalisib alone and in combination with anti-PD-1 (clone: RMP1-14) was evaluated for tumor growth inhibition (TGI) in the MC38 syngeneic murine colon carcinoma model in immunocompetent C57BL/6 female mice.

A further data set addresses PI3Kγ (Homo sapiens, UniProt P48736). Briefly: fMLP induced CD63 expression in human whole blood. The data set is classed as cell-based. Also on record: endogenous in cells; host or cells: human whole blood (fMLP induced CD63). Conditions: whole blood from healthy human subjects; flow cytometry; read-out: EC50 of fMLP (PI3Kγ) mediated CD63 expression. Background: Flow cytometry measures light scatter and fluorescence of single cells or particles in a stream.

A further data set concerns the target PI3Kδ (Homo sapiens, UniProt O00329). The data set is described as follows: PI3K isoform cell-based assay: anti-IgM induced human B-cell proliferation. Also on record: endogenous in cells; host or cells: human B cells (anti-IgM proliferation); human whole blood (anti-FcεR1 induced CD63).

Structures are written as SMILES.

Chain of PI3Kδ (O00329 whole entry, canonical isoform): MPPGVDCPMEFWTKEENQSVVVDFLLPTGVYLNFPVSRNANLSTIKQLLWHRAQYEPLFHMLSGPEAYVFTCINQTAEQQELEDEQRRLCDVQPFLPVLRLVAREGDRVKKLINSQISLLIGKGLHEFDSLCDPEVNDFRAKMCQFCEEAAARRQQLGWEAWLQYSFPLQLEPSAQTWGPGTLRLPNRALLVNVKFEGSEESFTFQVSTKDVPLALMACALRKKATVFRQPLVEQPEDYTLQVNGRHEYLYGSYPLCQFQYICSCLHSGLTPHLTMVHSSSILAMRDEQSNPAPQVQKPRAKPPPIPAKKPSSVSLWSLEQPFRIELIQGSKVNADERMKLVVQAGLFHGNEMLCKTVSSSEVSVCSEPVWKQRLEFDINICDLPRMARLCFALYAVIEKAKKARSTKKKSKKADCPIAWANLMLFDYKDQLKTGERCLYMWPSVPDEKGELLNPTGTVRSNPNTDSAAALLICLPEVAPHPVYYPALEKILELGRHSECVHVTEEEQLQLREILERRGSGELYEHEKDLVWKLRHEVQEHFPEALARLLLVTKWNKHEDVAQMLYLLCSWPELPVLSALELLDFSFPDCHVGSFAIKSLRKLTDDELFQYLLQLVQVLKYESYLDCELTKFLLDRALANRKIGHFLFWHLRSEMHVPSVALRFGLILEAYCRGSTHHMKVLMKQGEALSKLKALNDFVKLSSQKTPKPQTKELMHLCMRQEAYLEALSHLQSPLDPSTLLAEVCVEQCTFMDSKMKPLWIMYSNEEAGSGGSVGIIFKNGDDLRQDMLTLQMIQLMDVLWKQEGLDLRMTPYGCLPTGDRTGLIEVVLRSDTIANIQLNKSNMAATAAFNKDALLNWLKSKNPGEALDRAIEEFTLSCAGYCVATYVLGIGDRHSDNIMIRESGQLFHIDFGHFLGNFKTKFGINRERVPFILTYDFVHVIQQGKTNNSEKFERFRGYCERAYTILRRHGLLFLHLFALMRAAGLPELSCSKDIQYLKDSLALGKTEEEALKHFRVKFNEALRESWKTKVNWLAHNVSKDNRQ
Chain of PI3Kδ (P27986 whole entry partner, canonical isoform): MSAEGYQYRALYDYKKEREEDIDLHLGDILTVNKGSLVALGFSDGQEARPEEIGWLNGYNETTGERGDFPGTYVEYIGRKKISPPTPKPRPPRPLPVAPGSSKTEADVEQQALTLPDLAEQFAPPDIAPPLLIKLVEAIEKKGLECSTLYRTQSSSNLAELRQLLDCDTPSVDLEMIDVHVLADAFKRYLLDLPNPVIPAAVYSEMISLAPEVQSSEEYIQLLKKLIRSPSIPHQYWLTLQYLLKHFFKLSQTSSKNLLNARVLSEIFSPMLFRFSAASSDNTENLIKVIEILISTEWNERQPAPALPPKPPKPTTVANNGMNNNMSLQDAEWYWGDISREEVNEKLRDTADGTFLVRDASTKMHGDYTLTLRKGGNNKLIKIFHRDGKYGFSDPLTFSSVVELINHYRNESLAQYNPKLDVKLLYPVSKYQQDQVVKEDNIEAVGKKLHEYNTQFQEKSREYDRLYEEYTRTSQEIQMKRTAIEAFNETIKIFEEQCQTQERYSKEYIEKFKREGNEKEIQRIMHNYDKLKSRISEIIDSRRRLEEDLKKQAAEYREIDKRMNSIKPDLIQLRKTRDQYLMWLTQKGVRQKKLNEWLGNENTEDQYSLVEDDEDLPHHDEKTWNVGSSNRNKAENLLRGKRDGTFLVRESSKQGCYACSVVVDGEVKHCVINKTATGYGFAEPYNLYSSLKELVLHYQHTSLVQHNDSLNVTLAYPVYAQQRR
Chain of PI3Kβ (P42338 whole entry, canonical isoform): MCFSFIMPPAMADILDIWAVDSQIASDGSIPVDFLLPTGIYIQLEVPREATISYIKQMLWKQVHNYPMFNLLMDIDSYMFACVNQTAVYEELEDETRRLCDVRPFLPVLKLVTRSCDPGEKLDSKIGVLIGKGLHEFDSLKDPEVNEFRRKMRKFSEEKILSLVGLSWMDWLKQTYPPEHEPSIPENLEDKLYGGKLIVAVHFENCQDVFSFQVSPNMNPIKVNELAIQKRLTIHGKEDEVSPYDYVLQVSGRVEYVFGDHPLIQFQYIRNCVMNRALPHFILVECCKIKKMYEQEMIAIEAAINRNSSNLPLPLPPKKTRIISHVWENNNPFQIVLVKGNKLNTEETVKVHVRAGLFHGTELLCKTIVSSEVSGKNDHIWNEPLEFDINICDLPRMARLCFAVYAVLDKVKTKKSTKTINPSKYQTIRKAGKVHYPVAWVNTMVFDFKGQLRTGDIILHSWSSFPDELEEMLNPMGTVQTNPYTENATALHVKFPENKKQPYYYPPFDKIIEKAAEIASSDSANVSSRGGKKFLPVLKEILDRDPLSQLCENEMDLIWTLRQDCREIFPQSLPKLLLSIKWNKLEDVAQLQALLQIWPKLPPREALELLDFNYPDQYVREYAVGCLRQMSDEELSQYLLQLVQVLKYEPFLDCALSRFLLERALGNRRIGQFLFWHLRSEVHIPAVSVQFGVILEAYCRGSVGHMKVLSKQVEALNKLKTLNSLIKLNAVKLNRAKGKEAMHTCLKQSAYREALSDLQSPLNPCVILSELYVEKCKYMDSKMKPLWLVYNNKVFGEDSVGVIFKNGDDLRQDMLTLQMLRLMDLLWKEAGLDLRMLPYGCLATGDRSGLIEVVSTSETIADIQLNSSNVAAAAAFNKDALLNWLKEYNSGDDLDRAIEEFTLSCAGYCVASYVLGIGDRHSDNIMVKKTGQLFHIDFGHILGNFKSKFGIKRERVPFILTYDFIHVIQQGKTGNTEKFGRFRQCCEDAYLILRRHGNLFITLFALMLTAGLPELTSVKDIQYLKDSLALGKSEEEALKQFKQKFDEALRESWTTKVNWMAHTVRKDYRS
Chain of PI3Kβ (P27986 whole entry partner, canonical isoform): as the sequence (P27986 whole entry partner, canonical isoform) above
Chain of PI3Kγ (P48736 whole entry): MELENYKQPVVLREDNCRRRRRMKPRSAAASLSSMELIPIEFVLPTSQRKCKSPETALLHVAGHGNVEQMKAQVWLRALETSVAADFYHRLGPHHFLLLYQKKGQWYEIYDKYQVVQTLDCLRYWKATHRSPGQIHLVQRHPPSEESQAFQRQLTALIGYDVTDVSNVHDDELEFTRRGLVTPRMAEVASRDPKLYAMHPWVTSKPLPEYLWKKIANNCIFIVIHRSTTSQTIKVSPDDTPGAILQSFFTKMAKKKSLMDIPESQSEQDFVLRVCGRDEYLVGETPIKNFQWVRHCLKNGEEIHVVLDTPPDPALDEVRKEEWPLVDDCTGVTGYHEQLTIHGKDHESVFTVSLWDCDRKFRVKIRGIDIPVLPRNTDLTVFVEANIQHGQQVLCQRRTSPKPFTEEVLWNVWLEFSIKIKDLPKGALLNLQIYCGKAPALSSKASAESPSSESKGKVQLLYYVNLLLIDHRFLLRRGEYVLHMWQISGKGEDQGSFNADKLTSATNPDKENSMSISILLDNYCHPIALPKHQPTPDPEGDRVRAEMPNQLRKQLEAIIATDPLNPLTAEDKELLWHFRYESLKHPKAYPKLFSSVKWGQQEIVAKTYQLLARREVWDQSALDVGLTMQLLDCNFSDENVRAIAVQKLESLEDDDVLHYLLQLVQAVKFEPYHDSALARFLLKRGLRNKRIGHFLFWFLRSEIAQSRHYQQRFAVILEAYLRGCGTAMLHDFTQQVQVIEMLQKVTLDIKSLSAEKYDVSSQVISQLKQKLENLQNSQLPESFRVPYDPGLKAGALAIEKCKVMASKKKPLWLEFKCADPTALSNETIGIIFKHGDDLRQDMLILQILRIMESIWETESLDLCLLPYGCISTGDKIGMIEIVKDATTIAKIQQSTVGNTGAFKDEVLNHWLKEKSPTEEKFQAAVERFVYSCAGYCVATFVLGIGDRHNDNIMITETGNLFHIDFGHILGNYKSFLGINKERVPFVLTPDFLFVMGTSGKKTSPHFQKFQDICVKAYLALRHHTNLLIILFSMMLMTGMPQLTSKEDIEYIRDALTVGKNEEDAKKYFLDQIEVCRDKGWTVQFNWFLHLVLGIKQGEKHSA

Regarding `CC[C@H](Nc1ncnc2[nH]cnc12)c1oc2ccccc2c(=O)c1-c1cccc(F)c1` [Compound A, (S)-2-(1-(9H-purin-6-ylamino)propyl)-3-(3-fluorophenyl)-4H-chromen-4-one], the bioavailability in [1] turned out to be 21.6%. Besides, in [2], the Absorption result was “rapid”. The clearance entry in [2] was “moderate”. In data set [3], the “rank order of Cmax and AUC in tissues” value is listed as “liver>kidney>heart>plasma>thymus>spleen>serum>lung>blood>brain”. Moreover, in data set [4], the “% Metabolic Stability” value came out at 79.3%. For the same molecule, in [5], the “metabolic stability rank order” value is given as “rat>human>dog>monkey>mouse”. This molecule also yielded a half-maximal inhibitory concentration (IC50) at PI3Kβ of 4020 nM. The “TGI (Tumour Growth Inhibition) compared to control” value in [6] is reported as 29%. The values for the EC50 at PI3Kγ and at PI3Kδ (anti-IgM induced human B-cell proliferation) were 37.8 nM and 38.1 nM, respectively. On PI3Kδ (PI3K δ/γ versus PI3K α and β), the “selectivity over the α and β isoforms (cell-based assay)” value is given as “selective”.
